One data set has as its system Replicon. As to conditions: cited from earlier work.
Data set [1] has as its target T1, Hepatitis C virus NS5B polymerase (Hepatitis C virus genotype 1b, UniProt Q9WMX2).
T1 construct: Hepatitis C virus NS5B polymerase is an RNA-dependent RNA polymerase (RdRp)
As to conditions: compound tested as its triphosphate; read-out: NS5b IC50 of NTP; cited from earlier work.

Data set [2] relates to HCV. As to conditions: chimpanzee, 7 days, cited from earlier work.
Data set [3] relates to HCV. As to conditions: phase 2 study, 1500 mg BID for 14 days; cited from earlier work.
For data set [4] the following is noted: rat, in vivo, po, 50 mg/kg; cited from earlier work.
The conditions of data set [5]: rat, in vivo, po, 50 mg/kg.

The EC50 is the concentration needed to bring the measured effect to its halfway point. In general, IC50 refers to the concentration that gives 50% inhibition.

Read-outs that look alike come from different tables or passages of the source.

T1 sequence (Q9WMX2 2420-3010): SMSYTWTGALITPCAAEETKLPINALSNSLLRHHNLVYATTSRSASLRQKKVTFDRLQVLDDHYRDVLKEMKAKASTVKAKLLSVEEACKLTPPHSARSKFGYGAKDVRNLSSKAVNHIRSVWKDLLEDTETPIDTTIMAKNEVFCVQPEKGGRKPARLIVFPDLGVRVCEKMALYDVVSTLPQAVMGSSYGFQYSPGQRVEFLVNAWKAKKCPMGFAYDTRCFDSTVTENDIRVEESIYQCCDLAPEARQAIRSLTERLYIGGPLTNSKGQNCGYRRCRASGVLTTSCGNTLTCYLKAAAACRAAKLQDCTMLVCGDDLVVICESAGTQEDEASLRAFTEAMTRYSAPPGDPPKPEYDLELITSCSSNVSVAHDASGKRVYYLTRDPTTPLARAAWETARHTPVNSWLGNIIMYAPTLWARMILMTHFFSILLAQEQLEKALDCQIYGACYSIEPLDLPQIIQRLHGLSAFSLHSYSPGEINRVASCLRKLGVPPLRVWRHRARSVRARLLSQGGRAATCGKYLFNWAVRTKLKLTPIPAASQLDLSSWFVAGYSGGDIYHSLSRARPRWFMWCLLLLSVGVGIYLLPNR

As for `COC(=O)[C@H](C)NP(=O)(OC[C@H]1O[C@@H](n2ccc(=O)[nH]c2=O)[C@](C)(F)[C@@H]1O)Oc1ccccc1` (stereo partly drawn) [PSI-7672], in the data set with Replicon, the concentration giving a half-maximal response (EC50) was 1600 nM.

On to `C[C@@]1(F)[C@H](O)[C@@H](CO)O[C@H]1n1ccc(=O)[nH]c1=O` [RO2433, 2′-deoxy-2′-fluoro-2′-C-methyl-uridine], for which, in the data set on Replicon, the EC50 is more than 100000 nM and the “activity in the replicon assay” value was “inactive”. Besides, the half-maximal inhibitory concentration (IC50) in data set [1] was 520 nM.

As for `CC(C)[C@H](N)C(=O)O[C@@H]1[C@@H](CO)O[C@@H](n2ccc(N)nc2=O)[C@]1(C)O` [NM283], the “reduction in viral titre” value in the data set with HCV [2] (16.6 mg/kg/day) is on record as 1.15 log10.

As for `C[C@@]1(F)[C@H](O)[C@@H](CO)O[C@H]1n1ccc(N)nc1=O` [PSI-6130, β-D-2′-deoxy-2′-fluoro-2′-C-methylcytidine], in the data set with Replicon, the concentration for a half-maximal effect (EC50) was 600 nM and the “activity in the replicon assay” value was “potent”. The IC50 in data set [1] was 130 nM.

Regarding `CC(C)C(=O)OC[C@@]1(N=[N+]=[N-])O[C@@H](n2ccc(N)nc2=O)[C@H](OC(=O)C(C)C)[C@@H]1OC(=O)C(C)C` [Compound 81626], the “mean reduction in serum viral titre” value in the data set with HCV [3] is 1.2 log10.

Consider `C[C@@]1(O)[C@H](O)[C@@H](CO)O[C@H]1n1ccc2c(N)ncnc21` [MK-0608], for which the “reduction in viral titre” value in the data set on HCV [2] (intravenous 2 mg/kg/day) is listed as more than 5 log10.

Consider `CC(C)OC(=O)[C@H](C)NP(=O)(OC[C@H]1O[C@@H](n2ccc(=O)[nH]c2=O)[C@](C)(F)[C@@H]1O)Oc1ccccc1` (stereo partly drawn) [PSI-7851], for which, in data set [4], the liver triphosphate levels is reported as 2550 ng/g. Also, in data set [5], the “liver triphosphate level converted to molar units” value amounted to 5.1 nmol/g.
